In patent US20260232658A1, “AZETIDINYL BENZOXAZOLE COMPOUNDS AND THEIR USE AS MER AND AXL INHIBITORS” (DONG-A ST CO., LTD., priority 2022, published 2026):

How the values were obtained:
human MER (528-end) = molecular target: T1, human MER (528-end) (Homo sapiens, UniProt Q12866); assay: HTRF kinase activity biochemical assay, MER; settings: recombinant kinase, 10 uM ATP, 30 minutes pre-incubation; read-out: HTRF MERTK IC50;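 also: phosphorylation of a biotin-tagged tyrosine kinase substrate detected by Eu3+-cryptate antibody and streptavidin-XL665 time-resolved fluorescence, read after 1 h at room temperature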
T1 construct: human MER (528-end); purchased Carnabio, Japan
T1 sequence (Q12866 528-999 limits assumed): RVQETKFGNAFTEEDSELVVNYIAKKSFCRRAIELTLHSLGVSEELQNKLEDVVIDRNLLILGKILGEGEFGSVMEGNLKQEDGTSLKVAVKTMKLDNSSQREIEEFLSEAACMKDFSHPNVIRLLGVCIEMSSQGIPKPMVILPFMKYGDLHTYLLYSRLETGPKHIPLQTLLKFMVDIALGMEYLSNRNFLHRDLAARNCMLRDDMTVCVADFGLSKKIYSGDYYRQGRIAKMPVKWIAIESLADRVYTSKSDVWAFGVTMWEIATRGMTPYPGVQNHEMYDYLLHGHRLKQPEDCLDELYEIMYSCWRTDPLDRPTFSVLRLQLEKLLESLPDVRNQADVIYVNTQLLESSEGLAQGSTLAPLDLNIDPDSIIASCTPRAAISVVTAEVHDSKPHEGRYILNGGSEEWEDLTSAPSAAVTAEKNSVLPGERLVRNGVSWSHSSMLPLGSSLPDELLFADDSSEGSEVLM

human AXL (473-end) = molecular target: T2, human AXL (473-end) (Homo sapiens, UniProt P30530); assay: HTRF kinase activity biochemical assay, AXL; settings: recombinant kinase, 10 uM ATP, 30 minutes pre-incubation; read-out: HTRF AXL IC50;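 also: phosphorylation of a biotinylated tyrosine kinase substrate detected via Eu3+-cryptate anti-TK antibody and streptavidin-XL665, fluorescence read after a 1 h incubation at room temperature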
T2 construct: human AXL (473-end); purchased SignalChem, Canada
T2 sequence (P30530 473-894 limits assumed): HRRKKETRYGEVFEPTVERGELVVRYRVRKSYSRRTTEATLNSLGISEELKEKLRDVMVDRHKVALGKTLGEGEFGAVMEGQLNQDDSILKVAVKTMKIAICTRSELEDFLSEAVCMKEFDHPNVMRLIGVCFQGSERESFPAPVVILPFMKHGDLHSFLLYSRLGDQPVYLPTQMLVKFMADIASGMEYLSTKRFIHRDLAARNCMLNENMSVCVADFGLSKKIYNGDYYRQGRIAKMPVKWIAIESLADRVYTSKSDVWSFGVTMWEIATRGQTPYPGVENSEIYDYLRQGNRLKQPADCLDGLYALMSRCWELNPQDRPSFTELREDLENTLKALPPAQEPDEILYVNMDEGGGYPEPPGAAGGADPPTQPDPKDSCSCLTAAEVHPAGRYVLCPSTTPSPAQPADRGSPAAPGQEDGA

TYRO3 (455-end) = molecular target: T3, TYRO3 (455-end) (Homo sapiens, UniProt Q06418); assay: HTRF kinase activity biochemical assay, TYRO3; settings: recombinant kinase, 10 uM ATP, 30 minutes pre-incubation; read-out: HTRF TYRO IC50;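 also: biotinylated tyrosine kinase substrate phosphorylation detected via streptavidin-XL665 and Eu3+-cryptate anti-phospho antibody time-resolved fluorescence, read after 1 h detection at room temperature, 384-well format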
T3 construct: TYRO3 (455-end); purchased SignalChem, Canada
T3 sequence (Q06418 455-890 limits assumed): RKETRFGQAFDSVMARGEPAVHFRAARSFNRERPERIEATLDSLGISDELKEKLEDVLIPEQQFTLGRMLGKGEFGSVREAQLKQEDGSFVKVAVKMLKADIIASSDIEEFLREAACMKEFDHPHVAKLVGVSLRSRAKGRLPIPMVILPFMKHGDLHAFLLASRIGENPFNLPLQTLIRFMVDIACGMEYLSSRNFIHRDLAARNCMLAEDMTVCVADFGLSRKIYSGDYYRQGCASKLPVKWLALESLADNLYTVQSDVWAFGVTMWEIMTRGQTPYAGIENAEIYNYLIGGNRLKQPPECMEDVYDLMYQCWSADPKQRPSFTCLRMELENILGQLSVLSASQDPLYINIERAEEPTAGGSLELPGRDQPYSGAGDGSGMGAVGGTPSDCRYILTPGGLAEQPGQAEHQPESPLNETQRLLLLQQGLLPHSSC

| Structure (SMILES) | IC50 (human MER (528-end)) [nM] | IC50 (human AXL (473-end)) [nM] | IC50 (TYRO3 (455-end)) [nM] |
| --- | --- | --- | --- |
| Cn1cc(Nc2ncc(C3CN(c4nc5ccc(CC(=O)N6CCC[C@@H]6C(F)(F)F)cc5o4)C3)nc2C(N)=O)cn1 [Example 81, 3-[(1-methyl-1H-pyrazol-4-yl)amino]-6-[1-(6-{2-oxo-2-[(2R)-2-(trifluoromethyl)pyrrolidin-1-yl]ethyl}-1,3-benzoxazol-2-yl)azetidin-3-yl]pyrazine-2-carboxamide] | 1 | 3 | 1070 |
| Cn1cc(Nc2ncc(C3CN(c4nc5ccc(OC6CCCC6O)cc5o4)C3)nc2C(N)=O)cn1 (stereo not drawn) [Example 79, 6-(1-{6-[(2-hydroxycyclopentyl)oxy]-1,3-benzoxazol-2-yl}azetidin-3-yl)-3-[(1-methyl-1H-pyrazol-4-yl)amino]pyrazine-2-carboxamide] | < 1 | 2 | 66 |
| Cn1cc(Nc2ncc(C3CN(c4nc5ccc(CC(CO)CO)cc5o4)C3)nc2C(N)=O)cn1 [Example 25, 6-(1-{6-[3-hydroxy-2-(hydroxymethyl)propyl]-1,3-benzoxazol-2-yl}azetidin-3-yl)-3-[(1-methyl-1H-pyrazol-4-yl)amino]pyrazine-2-carboxamide] | 7 | 10 | 1100 |
| COc1cnc(Oc2ccc3nc(N4CC(c5cnc(Nc6cnn(C)c6)c(C(N)=O)n5)C4)oc3c2)nc1 [Example 102, 6-(1-{6-[(5-methoxypyrimidin-2-yl)oxy]-1,3-benzoxazol-2-yl}azetidin-3-yl)-3-[(1-methyl-1H-pyrazol-4-yl)amino]pyrazine-2-carboxamide] | < 1 | 2 | 100 |
| Cn1cc(Nc2ncc(C3CN(c4nc5ccc(OCCO)cc5o4)C3)nc2C(N)=O)cn1 [Example 40, 6-{1-[6-(2-hydroxyethoxy)-1,3-benzoxazol-2-yl]azetidin-3-yl}-3-[(1-methyl-1H-pyrazol-4-yl)amino]pyrazine-2-carboxamide] | 2 | 8 | 460 |
| Cn1cc(Nc2ncc(C3CN(c4nc5ccc(OCCC(C)(C)OC(=O)CNC(=O)OC(C)(C)C)cc5o4)C3)nc2C(N)=O)cn1 [Example 95A, 4-{[2-(3-f{6-carbamoyl-5-[(1-methyl-1H-pyrazol-4-yl)amino]pyrazin-2-yl}azetidin-1-yl)-1,3-benzoxazol-6-yl]oxy}-2-methylbutan-2-yl [(tert-butoxycarbonyl)amino]acetate] | < 1 | 3 | 460 |
| CO[C@H]1CCN(C(=O)Cc2ccc3nc(N4CC(c5cnc(Nc6cnn(C)c6)c(C(N)=O)n5)C4)oc3c2)C1 [Example 70, 6-[1-(6-{2-[(3S)-3-methoxypyrrolidin-1-yl]-2-oxoethyl}-1,3-benzoxazol-2-yl)azetidin-3-yl]-3-[(1-methyl-1H-pyrazol-4-yl)amino]pyrazine-2-carboxamide] | 3 | 20 | > 12500 |
| NC(=O)c1nc(C2CN(c3nc4ccc(F)cc4o3)C2)cnc1Nc1cn[nH]c1 [Example 36C, 6-[1-(6-fluoro-1,3-benzoxazol-2-yl)azetidin-3-yl]-3-[(1H-pyrazol-4-yl)amino]pyrazine-2-carboxamide] | 1 | 3 | > 10000 |
| NC(=O)c1nc(C2CN(c3nc4ccccc4o3)C2)cnc1Nc1cn[nH]c1 [Example 14, 6-[1-(1,3-benzoxazol-2-yl)azetidin-3-yl]-3-[(1H-pyrazol-4-yl)amino]pyrazine-2-carboxamide] | 8 | 14 | 490 |
| Cn1cc(Nc2ncc(C3CN(c4nc5ccc(CC(=O)N6CCC[C@H]6CO)cc5o4)C3)nc2C(N)=O)cn1 [Example 66, 6-[1-(6-{2-[(2S)-2-(hydroxymethyl)pyrrolidin-1-yl]-2-oxoethyl}-1,3-benzoxazol-2-yl)azetidin-3-yl]-3-[(1-methyl-1H-pyrazol-4-yl)amino]pyrazine-2-carboxamide] | 2 | 3 | 2900 |
| Cn1cc(Nc2ccc(C3CN(c4nc5ccc(OCCC(C)(C)OC(=O)CN)cc5o4)C3)nc2C(N)=O)cn1 [Example 110, 4-{[2-(3-{6-carbamoyl-5-[(1-methyl-1H-pyrazol-4-yl)amino]pyridin-2-yl}azetidin-1-yl)-1,3-benzoxazol-6-yl]oxy}-2-methylbutan-2-yl glycinate] | < 1 | 1.8 | 280 |
| Cn1cc(Nc2ncc(C3CN(c4nc5ccc(C(=O)NC6CC6)cc5o4)C3)nc2C(N)=O)cn1 [Example 53, 2-(3-{6-carbamoyl-5-[(1-methyl-1H-pyrazol-4-yl)amino]pyrazin-2-yl}azetidin-1-yl)-N-cyclopropyl-1,3-benzoxazole-6-carboxamide] | 4 | 2 | 2670 |
| Cn1cc(Nc2ncc(C3CN(c4nc5ccc(OCC6(O)CCC6)cc5o4)C3)nc2C(N)=O)cn1 [Example 44, 6-(1-{6-[(1-hydroxycyclobutyl)methoxy]-1,3-benzoxazol-2-yl}azetidin-3-yl)-3-[(1-methyl-1H-pyrazol-4-yl)amino]pyrazine-2-carboxamide] | < 1 | 2 | 110 |
| CC(C)(O)CCOc1ccc2nc(N3CC(c4cnc(Nc5cnn(CC(C)(C)O)c5)c(C(N)=O)n4)C3)oc2c1 [Example 96, 6-{1-[6-(3-hydroxy-3-methylbutoxy)-1,3-benzoxazol-2-yl]azetidin-3-yl}-3-{[1-(2-hydroxy-2-methylpropyl)-1H-pyrazol-4-yl]amino}pyrazine-2-carboxamide] | 3 | 12 | 1610 |
| CN1CCCC(Oc2ccc3nc(N4CC(c5cnc(Nc6cnn(C)c6)c(C(N)=O)n5)C4)oc3c2)C1=O (stereo not drawn) [Example 76, 6-(1-{6-[(1-methyl-2-oxopiperidin-3-yl)oxy]-1,3-benzoxazol-2-yl}azetidin-3-yl)-3-[(1-methyl-1H-pyrazol-4-yl)amino]pyrazine-2-carboxamide] | < 1 | 2 | 240 |
| Cn1cc(Nc2ncc(C3CN(c4nc5ccc(OCC6CC(CO)C6)cc5o4)C3)nc2C(N)=O)cn1 (stereo not drawn) [Example 56, 6-[1-(6-{[3-(hydroxymethyl)cyclobutyl]methoxy}-1,3-benzoxazol-2-yl)azetidin-3-yl]-3-[(1-methyl-1H-pyrazol-4-yl)amino]pyrazine-2-carboxamide] | < 1 | 2 | 92 |
| Cc1ccc2nc(N3CC(c4cnc(Nc5cnn(CCO)c5)c(C(N)=O)n4)C3)oc2c1 [Example 54, 3-{[1-(2-hydroxyethyl)-1H-pyrazol-4-yl]amino}-6-[1-(6-methyl-1,3-benzoxazol-2-yl)azetidin-3-yl]pyrazine-2-carboxamide] | 5 | 23 | 620 |
| COCCn1cc(Nc2ncc(C3CN(c4nc5ccc(C)cc5o4)C3)nc2C(N)=O)cn1 [Example 55, 3-{[1-(2-methoxyethyl)-1H-pyrazol-4-yl]amino}-6-[1-(6-methyl-1,3-benzoxazol-2-yl)azetidin-3-yl]pyrazine-2-carboxamide] | 3 | 14 | 220 |
| Cn1cc(Nc2ncc(C3CN(c4nc5ccc(OCC(=O)N6CCC6)cc5o4)C3)nc2C(N)=O)cn1 [Example 73, 6-(1-{6-[2-(azetidin-1-yl)-2-oxoethoxy]-1,3-benzoxazol-2-yl}azetidin-3-yl)-3-[(1-methyl-1H-pyrazol-4-yl)amino]pyrazine-2-carboxamide] | 2 | 9 | 1700 |
